Key:
Assay in all cases: relative viability (nuclei count vs DMSO), 5 days (fraction); higher = more cells survive
Lapatinib + Palbociclib = compound: CS(=O)(=O)CCNCc1ccc(-c2ccc3ncnc(Nc4ccc(OCc5cccc(F)c5)c(Cl)c4)c3c2)o1 [Lapatinib] + CC(=O)c1c(C)c2cnc(Nc3ccc(N4CCNCC4)cn3)nc2n(C2CCCC2)c1=O [Palbociclib] (partner 0.5 µM)
How it was run: (§1)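 Relative viability is defined as nuclei in treated wells over nuclei in vehicle wells. Duplicate plates were run and medians reported. Lung cancer cell lines in 1536-well plates were dosed by pin tool one day after seeding, with one drug or with a fixed anchor-drug dose plus five library-drug doses (not always all listed) in √10 steps, and nuclei were counted after 5 days.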

Lapatinib + Alpelisib = compound: CS(=O)(=O)CCNCc1ccc(-c2ccc3ncnc(Nc4ccc(OCc5cccc(F)c5)c(Cl)c4)c3c2)o1 [Lapatinib] + Cc1nc(NC(=O)N2CCC[C@H]2C(N)=O)sc1-c1ccnc(C(C)(C)C(F)(F)F)c1 [Alpelisib] (partner 2 µM)
How it was run: as §1

Wnt-C59 + Crizotinib = compound: CC1=NC=CC(=C1)C2=CC=C(C=C2)CC(=O)NC3=CC=C(C=C3)C4=CN=CC=C4 [Wnt-C59] + C[C@@H](Oc1cc(-c2cnn(C3CCNCC3)c2)cnc1N)c1c(Cl)ccc(F)c1Cl [Crizotinib] (partner 1 µM)
How it was run: as §1

Lapatinib + Crizotinib = compound: CS(=O)(=O)CCNCc1ccc(-c2ccc3ncnc(Nc4ccc(OCc5cccc(F)c5)c(Cl)c4)c3c2)o1 [Lapatinib] + C[C@@H](Oc1cc(-c2cnn(C3CCNCC3)c2)cnc1N)c1c(Cl)ccc(F)c1Cl [Crizotinib] (partner 1 µM)
How it was run: as §1

Row | Cell Line | relative viability (Lapatinib + Palbociclib; first compound 0.06325 µM) | relative viability (Lapatinib + Palbociclib; first compound 0.2 µM) | relative viability (Lapatinib + Palbociclib; first compound 0.6325 µM) | relative viability (Lapatinib + Palbociclib; first compound 2 µM) | relative viability (Lapatinib + Alpelisib; first compound 0.06325 µM) | relative viability (Lapatinib + Alpelisib; first compound 0.2 µM) | relative viability (Lapatinib + Alpelisib; first compound 0.6325 µM) | relative viability (Lapatinib + Alpelisib; first compound 2 µM) | relative viability (Wnt-C59 + Crizotinib; first compound 0.001 µM) | relative viability (Wnt-C59 + Crizotinib; first compound 0.01 µM) | relative viability (Wnt-C59 + Crizotinib; first compound 0.03162 µM) | relative viability (Wnt-C59 + Crizotinib; first compound 0.1 µM) | relative viability (Lapatinib + Crizotinib; first compound 0.06325 µM) | relative viability (Lapatinib + Crizotinib; first compound 0.2 µM) | relative viability (Lapatinib + Crizotinib; first compound 0.6325 µM) | relative viability (Lapatinib + Crizotinib; first compound 2 µM) | relative viability (Lapatinib + Alpelisib; first compound 0.02 µM) | relative viability (Lapatinib + Palbociclib; first compound 0.02 µM) | relative viability (Lapatinib + Crizotinib; first compound 0.02 µM)
1 | NCI-H522 | 0.749 | 0.954 | 1.02 | 0.777 |  |  |  |  |  |  |  |  |  |  |  |  |  |  | 
2 | NCI-H650 | 0.315 | 0.346 | 0.319 | 0.334 | 1.04 | 0.998 | 0.953 | 1.2 | 0.699 | 0.75 | 0.874 | 0.691 | 0.637 | 0.872 | 0.624 | 0.69 |  |  | 
3 | NCI-H460 | 0.168 | 0.149 | 0.149 | 0.118 | 0.362 | 0.448 | 0.389 | 0.4 | 0.996 | 0.961 | 0.878 | 0.689 | 0.953 | 1.11 | 0.802 | 0.983 | 0.415 | 0.116 | 0.892
4 | HCC-827 | 0.433 | 0.461 | 0.257 | 0.415 | 0.957 | 0.957 | 0.914 | 0.434 | 1.01 | 0.979 | 0.942 | 0.975 | 0.944 | 0.923 | 0.88 | 0.513 | 0.89 | 0.435 | 0.915
5 | NCI-H647 | 0.393 | 0.434 | 0.292 | 0.307 | 0.779 | 1.06 | 1.14 | 1.01 | 1.12 | 1.15 | 1.2 | 0.909 | 0.904 | 1.03 | 1.03 | 0.923 | 1.01 | 0.393 | 1.01
6 | SW 1573 | 0.384 | 0.411 | 0.372 | 0.359 | 0.648 | 0.635 | 0.821 | 0.843 | 0.771 | 0.764 | 0.746 | 0.825 | 0.724 | 0.856 | 0.829 | 0.623 | 0.705 |  | 0.762
7 | NCI-H2170 | 0.313 | 0.271 | 0.277 | 0.136 | 0.551 | 0.477 | 0.376 | 0.21 | 1.19 | 1.09 | 1.46 | 1.11 | 0.904 | 0.694 | 0.475 | 0.223 | 0.76 | 0.376 | 1.13
8 | ChaGo-K-1 | 0.9 | 0.939 | 0.909 | 0.912 |  |  |  |  | 1.08 |  | 1.21 | 1.09 | 1.07 | 1.19 | 1.09 | 1.09 |  | 0.868 | 
9 | NCI-H1650 | 0.314 | 0.379 | 0.3 | 0.299 |  |  |  |  | 1.08 | 1.02 | 0.896 | 0.89 | 0.795 | 0.854 | 0.9 | 0.596 |  | 0.315 | 0.977
10 | NCI-H596 |  |  |  |  | 0.48 | 0.425 | 0.554 | 0.446 | 0.972 | 1 | 1.32 | 0.932 | 0.849 | 1 | 0.997 | 0.659 | 0.481 |  | 0.916
11 | NCI-H1395 | 0.621 | 0.581 | 0.598 | 0.616 | 0.93 | 1.18 | 0.978 | 1.03 |  |  |  |  |  |  |  |  |  |  | 
12 | SW 900 | 0.514 | 0.554 | 0.586 | 0.43 |  |  |  |  |  |  |  |  |  |  |  |  |  |  | 
13 | NCI-H2342 | 0.491 | 0.501 | 0.553 | 0.484 |  |  |  |  |  |  |  |  |  |  |  |  |  | 0.504 | 
14 | NCI-H1299 |  |  |  |  | 1.08 | 1.11 | 1.03 | 1.04 | 1.02 | 0.562 | 0.952 | 0.953 | 1.03 | 0.893 | 0.944 | 0.916 | 1.06 |  | 0.952
15 | Calu-6 |  |  |  |  | 0.93 | 1.06 | 1.01 | 0.894 | 0.787 | 0.779 | 0.883 | 0.825 | 0.801 | 0.909 | 0.763 | 0.753 | 0.919 |  | 0.846
16 | A549 |  |  |  |  | 0.528 | 0.755 | 0.665 | 0.516 | 0.802 | 0.676 | 0.752 | 0.676 | 0.675 | 0.73 | 0.674 | 0.616 | 0.609 |  | 0.735
17 | NCI-H1703 |  |  |  |  | 0.33 | 0.325 | 0.398 | 0.343 | 0.988 | 0.735 | 0.585 | 0.64 | 0.873 | 0.774 | 0.879 | 0.63 | 0.289 |  | 0.696
18 | NCI-H1563 |  |  |  |  | 0.848 | 0.795 | 0.961 | 0.898 | 0.812 | 0.802 | 0.965 | 0.797 | 0.874 | 0.861 | 0.789 | 0.774 | 0.951 |  | 0.881
19 | IA-LM |  |  |  |  | 0.66 | 0.76 | 0.763 | 0.792 | 0.919 | 0.746 | 0.632 | 0.705 | 0.98 | 0.713 | 0.881 | 0.644 | 0.653 |  | 0.823
20 | NCI-H1793 | 0.25 | 0.258 | 0.293 | 0.241 |  |  | 0.563 | 0.384 |  |  |  |  |  |  |  |  |  |  | 
21 | EBC-1 |  |  |  |  | 0.766 | 0.889 | 0.801 | 0.695 | 0.191 | 0.188 | 0.204 | 0.224 | 0.179 | 0.178 | 0.174 | 0.18 | 0.826 |  | 0.181
22 | NCI-H1648 | 0.222 | 0.294 | 0.285 | 0.252 |  |  |  |  |  |  |  |  |  |  |  |  |  |  | 

Reference: the supplement of paper PMC10307832
